Data: ChEMBL document CHEMBL1201862, “PubChem BioAssay data set” (2004)
The source made the active and inactive calls.

Tests used:
[1] = Jurkat T cell cytotoxicity, dose response, cytotoxicity control for P. falciparum gametocyte viability project, luminescence (AID 1117277); assay type: functional, cell-based;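 also: potency reflects loss of cellular ATP meaning fewer viable cells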
[2] = P. falciparum late gametocyte killing, dose response, luminescence (AID 1117278); assay type: functional, cell-based;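 also: gametocytes exposed to compound for 24 hours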
[3] = M. tuberculosis H37Rv growth inhibitors, H37Rv strain (AID 1626); assay type: functional
[4] = target: Protein-tyrosine kinase 2-beta (Homo sapiens, UniProt Q14289);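 also: potency of inhibitors of PYK2 kinase phosphorylation of poly-GT substrate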
Sequence of Protein-tyrosine kinase 2-beta (Q14289 whole entry): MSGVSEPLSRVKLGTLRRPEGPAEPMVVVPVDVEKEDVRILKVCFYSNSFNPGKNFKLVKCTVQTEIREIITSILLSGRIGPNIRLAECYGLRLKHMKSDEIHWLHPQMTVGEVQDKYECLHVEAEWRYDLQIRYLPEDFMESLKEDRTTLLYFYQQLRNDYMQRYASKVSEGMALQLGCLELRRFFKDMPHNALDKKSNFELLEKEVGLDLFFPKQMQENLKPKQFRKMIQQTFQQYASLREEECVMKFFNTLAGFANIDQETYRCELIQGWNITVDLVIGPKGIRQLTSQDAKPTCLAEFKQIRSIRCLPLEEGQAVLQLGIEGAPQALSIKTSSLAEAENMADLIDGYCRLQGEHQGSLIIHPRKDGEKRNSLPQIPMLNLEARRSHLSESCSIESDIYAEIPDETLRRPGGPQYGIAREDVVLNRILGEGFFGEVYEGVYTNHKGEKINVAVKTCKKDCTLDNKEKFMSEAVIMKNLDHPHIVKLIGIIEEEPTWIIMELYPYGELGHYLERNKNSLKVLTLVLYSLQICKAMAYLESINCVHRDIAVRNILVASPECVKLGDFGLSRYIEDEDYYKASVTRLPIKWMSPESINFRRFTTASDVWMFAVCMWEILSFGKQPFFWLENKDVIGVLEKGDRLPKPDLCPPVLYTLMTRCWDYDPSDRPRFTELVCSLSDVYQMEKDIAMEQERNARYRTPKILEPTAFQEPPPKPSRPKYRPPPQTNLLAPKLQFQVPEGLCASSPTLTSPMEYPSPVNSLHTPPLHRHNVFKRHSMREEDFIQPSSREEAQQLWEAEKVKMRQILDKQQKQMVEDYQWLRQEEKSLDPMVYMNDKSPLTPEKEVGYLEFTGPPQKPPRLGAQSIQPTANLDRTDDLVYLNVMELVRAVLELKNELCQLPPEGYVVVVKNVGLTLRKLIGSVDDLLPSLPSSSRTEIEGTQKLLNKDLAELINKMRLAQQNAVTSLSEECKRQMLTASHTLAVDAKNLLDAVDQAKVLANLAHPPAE

[5] = target: T1, Microphthalmia-associated transcription factor (Homo sapiens, UniProt O75030); test: TRPM1 promoter luciferase signal decrease, dose response, MITF inhibitor project, cell-based, SK-MEL-5, cherry-picked, set 3 (AID 493073); assay type: functional
T1 sequence (O75030 whole entry): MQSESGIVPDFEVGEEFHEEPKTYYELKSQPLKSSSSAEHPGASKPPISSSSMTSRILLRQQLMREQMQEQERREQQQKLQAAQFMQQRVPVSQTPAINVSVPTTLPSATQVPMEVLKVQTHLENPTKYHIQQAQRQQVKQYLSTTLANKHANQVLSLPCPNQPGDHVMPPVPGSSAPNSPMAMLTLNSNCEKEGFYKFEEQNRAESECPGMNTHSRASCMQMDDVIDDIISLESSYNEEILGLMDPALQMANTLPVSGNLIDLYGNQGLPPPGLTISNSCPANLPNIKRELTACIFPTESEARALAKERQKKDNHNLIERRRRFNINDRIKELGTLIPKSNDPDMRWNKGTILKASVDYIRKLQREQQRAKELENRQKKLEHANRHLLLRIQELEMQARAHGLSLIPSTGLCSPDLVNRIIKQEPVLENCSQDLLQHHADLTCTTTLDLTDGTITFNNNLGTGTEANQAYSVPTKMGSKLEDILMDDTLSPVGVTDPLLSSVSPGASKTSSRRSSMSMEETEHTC

[6] = target: T2, Polyadenylate-binding protein 1 (Homo sapiens, UniProt P11940); test: PABP1 MLLE–PAM2 binding inhibitor potency, dose response, biochemical, fluorescence polarization, FITC-PAM2 peptide (AID 602259); assay type: functional; details: read-out: IC50_Mean
T2 sequence (P11940 whole entry): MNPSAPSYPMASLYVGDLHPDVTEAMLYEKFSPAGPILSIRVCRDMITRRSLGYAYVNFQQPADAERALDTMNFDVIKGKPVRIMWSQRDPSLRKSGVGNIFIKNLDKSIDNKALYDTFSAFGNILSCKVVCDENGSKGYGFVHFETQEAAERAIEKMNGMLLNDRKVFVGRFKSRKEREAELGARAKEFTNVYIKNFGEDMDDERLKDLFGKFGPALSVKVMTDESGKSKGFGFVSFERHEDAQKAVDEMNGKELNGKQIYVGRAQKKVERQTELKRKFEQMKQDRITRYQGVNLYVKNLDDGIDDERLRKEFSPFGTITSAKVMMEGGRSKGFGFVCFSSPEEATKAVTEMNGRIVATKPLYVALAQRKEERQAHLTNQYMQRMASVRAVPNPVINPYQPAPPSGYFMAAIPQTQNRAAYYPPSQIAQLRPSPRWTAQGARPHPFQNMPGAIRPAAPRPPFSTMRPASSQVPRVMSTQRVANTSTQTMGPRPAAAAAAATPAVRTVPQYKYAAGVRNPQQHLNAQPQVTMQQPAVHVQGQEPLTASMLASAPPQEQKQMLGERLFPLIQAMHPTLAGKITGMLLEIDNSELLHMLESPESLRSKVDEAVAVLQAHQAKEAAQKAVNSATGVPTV

[7] = target: E3 ubiquitin-protein ligase Mdm2 (Homo sapiens, UniProt Q00987); test: enhancers of MDM2-luciferase reporter signal, concentration-effect titration, project on inhibitors of MDM2 ubiquitin ligase, cellular assay, luminescent readout, 384-well plate format (AID 1394); assay type: functional;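 also: MDM2 E3 inhibitors raise luminescence so EC50 is for signal enhancement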
Sequence of E3 ubiquitin-protein ligase Mdm2 (Q00987 whole entry): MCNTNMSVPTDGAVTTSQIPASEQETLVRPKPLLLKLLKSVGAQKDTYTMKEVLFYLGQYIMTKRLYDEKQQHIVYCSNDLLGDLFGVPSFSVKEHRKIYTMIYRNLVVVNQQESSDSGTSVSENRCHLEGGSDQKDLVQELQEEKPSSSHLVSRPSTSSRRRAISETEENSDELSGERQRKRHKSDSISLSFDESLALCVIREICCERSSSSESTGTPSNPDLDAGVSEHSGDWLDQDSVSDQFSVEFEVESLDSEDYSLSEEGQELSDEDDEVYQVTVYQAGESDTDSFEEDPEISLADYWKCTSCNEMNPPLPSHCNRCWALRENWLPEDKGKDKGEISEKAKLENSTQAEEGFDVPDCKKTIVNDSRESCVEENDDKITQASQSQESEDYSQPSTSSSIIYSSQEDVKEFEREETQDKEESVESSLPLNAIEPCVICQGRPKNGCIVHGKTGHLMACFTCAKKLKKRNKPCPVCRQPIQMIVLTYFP

[8] = target: T2, Polyadenylate-binding protein 1; test: PABP1 MLLE–PAM2 interaction inhibitors, dose response, miRNA deadenylation inhibitor project, biochemical, fluorescence polarization, Cy5-PAM2 peptide, secondary (AID 602260); assay type: functional; details: read-out: IC50_Mean
[9] = cytotoxicity toward NIH3T3 fibroblasts, dose response, counter-screen, cell-based, ATP luminescence, mouse fibroblasts (AID 2010); assay type: functional;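 also: cells exposed to compound for about 90 hours before reading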
[10] = inhibitors of intracellular T. cruzi replication, confirmation, NIH3T3 host cells, beta-gal luminescence (AID 2044); assay type: functional, cell-based;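 also: intracellular parasites grown in NIH/3T3 mouse fibroblasts as host cells; luminescent beta-galactosidase reporter signal from transgenic T. cruzi replicating inside host cells; inhibitors lower the luminescence signal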
[11] = cells
[12] = target: Glucose-6-phosphate 1-dehydrogenase (Homo sapiens, UniProt P11413); test: human G6PD enzyme inhibitors, dose response, selectivity assay for P. falciparum G6PD inhibitor project, biochemical, fluorescence (AID 504792); assay type: functional
Sequence of Glucose-6-phosphate 1-dehydrogenase (P11413 whole entry): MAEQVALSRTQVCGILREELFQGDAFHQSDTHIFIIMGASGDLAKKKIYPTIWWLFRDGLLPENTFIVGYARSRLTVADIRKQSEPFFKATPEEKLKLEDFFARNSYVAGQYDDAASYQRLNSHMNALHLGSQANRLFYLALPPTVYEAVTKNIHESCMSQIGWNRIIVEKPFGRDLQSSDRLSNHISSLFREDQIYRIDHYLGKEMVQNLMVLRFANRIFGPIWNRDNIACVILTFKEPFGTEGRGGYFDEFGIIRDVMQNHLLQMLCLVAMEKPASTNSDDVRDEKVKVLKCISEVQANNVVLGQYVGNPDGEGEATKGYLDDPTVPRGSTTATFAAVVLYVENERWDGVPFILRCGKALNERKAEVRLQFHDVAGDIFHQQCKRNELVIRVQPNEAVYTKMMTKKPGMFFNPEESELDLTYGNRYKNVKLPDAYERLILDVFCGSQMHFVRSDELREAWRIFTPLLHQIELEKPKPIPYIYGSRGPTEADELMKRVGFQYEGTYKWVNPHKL

[13] = inhibitors of Bluetongue virus cytopathic effect, confirmation, arbovirus, BSR cells (AID 1250); assay type: functional;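 also: protection from viral cytopathic effect measured as cell viability by ATP luminescence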
[14] = target: Bifunctional protein GlmU (Mycobacterium tuberculosis, UniProt P9WMN3); test: Inhibitors of Mycobacterial Glucosamine-1-phosphate acetyl transferase (GlmU). Secondary screen.; design: species or system Mycobacterium tuberculosis H37Rv
Sequence of Bifunctional protein GlmU (P9WMN3 whole entry): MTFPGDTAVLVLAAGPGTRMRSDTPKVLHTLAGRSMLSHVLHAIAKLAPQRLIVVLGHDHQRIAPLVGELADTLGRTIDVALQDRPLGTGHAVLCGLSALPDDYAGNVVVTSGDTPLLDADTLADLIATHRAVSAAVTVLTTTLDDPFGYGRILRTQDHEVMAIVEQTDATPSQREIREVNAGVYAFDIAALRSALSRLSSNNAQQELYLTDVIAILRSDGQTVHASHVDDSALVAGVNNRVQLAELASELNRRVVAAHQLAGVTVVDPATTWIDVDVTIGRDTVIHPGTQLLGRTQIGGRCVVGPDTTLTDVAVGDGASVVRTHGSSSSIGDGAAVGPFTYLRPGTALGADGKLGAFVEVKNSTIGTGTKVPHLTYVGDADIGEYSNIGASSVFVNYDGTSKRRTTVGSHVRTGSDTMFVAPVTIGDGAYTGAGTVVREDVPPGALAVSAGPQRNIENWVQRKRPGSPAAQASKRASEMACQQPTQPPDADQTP

[15] = HEp-2 cell cytotoxicity, dose response, cytotoxicity control for RSV inhibitor project, HTS (AID 2410); assay type: functional; details: human respiratory syncytial virus
[16] = cytotoxicity in HPDE-C7 cells, cell-based, fluorescence, HTS (AID 430); assay type: functional; details: Homo sapiens
[17] = cytotoxicity in KRAS-transformed pancreatic duct cells, primary screen, cell-based, fluorescence, HTS (AID 431); assay type: functional; details: Homo sapiens;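 also: cell line used: HPDE-C7K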
[18] = target: Cytochrome P450 3A4 (Homo sapiens, UniProt P08684);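 also: CYP3A4 tested as one member of a cytochrome P450 panel screen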
Sequence of Cytochrome P450 3A4 (P08684 whole entry): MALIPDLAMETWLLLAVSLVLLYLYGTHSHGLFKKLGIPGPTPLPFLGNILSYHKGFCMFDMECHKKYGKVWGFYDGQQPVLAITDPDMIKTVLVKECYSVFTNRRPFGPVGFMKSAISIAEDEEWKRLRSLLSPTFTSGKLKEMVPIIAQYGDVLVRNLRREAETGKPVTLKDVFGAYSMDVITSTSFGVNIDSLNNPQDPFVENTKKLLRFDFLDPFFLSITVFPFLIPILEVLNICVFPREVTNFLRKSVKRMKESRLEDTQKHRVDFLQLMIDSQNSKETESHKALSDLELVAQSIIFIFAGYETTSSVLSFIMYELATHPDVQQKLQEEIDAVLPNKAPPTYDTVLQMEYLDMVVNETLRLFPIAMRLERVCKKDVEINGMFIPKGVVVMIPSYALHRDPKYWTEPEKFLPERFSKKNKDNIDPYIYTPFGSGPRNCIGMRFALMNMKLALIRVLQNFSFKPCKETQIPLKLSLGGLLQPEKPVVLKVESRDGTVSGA

[19] = target: Cytochrome P450 2D6 (Homo sapiens, UniProt P10635);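 also: CYP2D6 member of a cytochrome P450 panel assay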
Sequence of Cytochrome P450 2D6 (P10635 whole entry): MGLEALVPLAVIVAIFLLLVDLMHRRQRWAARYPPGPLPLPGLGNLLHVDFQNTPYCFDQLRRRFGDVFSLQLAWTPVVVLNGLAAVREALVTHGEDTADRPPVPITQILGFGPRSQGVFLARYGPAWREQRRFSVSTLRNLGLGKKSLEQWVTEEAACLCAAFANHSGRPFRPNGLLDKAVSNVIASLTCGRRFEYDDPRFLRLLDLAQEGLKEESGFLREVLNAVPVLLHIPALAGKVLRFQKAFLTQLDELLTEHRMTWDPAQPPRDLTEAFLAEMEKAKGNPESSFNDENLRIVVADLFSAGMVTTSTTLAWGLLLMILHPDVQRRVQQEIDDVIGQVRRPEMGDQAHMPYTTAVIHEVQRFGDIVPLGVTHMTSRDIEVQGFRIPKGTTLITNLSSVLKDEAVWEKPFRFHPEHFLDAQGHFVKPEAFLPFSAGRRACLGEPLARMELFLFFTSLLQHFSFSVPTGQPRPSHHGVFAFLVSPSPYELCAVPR

[20] = inhibitors of Vif binding to APOBEC3G peptide, primary screen, biochemical, TR-FRET, GST-Vif 1-94, biotin-A3G peptide, dose response retest (AID 1117319); assay type: functional;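 also: TR-FRET signal of purified GST-Vif binding a biotinylated A3G peptide; inhibitors lower the FRET signal by blocking Vif and A3G binding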

O=C(COC(=O)Cc1ccc(F)cc1)NCc1ccco1
IC50 [1]: > 83.2 µM (inactive) | IC50 [2]: > 109 µM (inactive)

O=Cc1ccc2noc(-c3ccc(F)cc3)c2c1
IC50 [3]: > 100 µM (active) | IC50 [4]: > 69.5 µM (not active)

COC(=O)CSC1=C(C#N)C(=O)NC(c2ccccc2)S1 (stereo not drawn)
AC50 [5]: 7.06 µM (active) | IC50 [6]: > 66 µM (inactive) | EC50 [7]: 2.15 µM (active) | IC50 [8]: > 66 µM (inactive)

CCc1sc(C(=O)NC2CCN(C)CC2)cc1Br
EC50 [9]: > 60 µM (not active) | EC50 [10]: < 0.1 µM (active) | EC50 [11]: 0.026 µM (active)

O=C(Nc1sc2c(c1C(=O)O)CCC2)c1ccc(F)cc1
IC50 [12]: > 80 µM (inactive) | IC50 [13]: 31.4 µM (active)

CN1CCN(c2nc(-c3ccc(Br)cc3)nnc2-c2ccccc2)CC1
EC50 [9]: > 60 µM (inconclusive) | EC50 [10]: < 0.1 µM (active) | EC50 [11]: 0.008 µM (active)

CCCSc1nnc(NC(=O)c2sc3nc(-c4cccs4)ccc3c2N)s1
IC50 [14]: 167 µM (active) | CC50 [15]: 46 µM (active)

COC(=O)C(CC(=O)c1ccc(Br)cc1)n1ccnc1 (stereo not drawn)
EC50 [16]: 15.5 µM (active) | EC50 [17]: 14.4 µM (active)

O=C(N/N=C/c1ccc(F)cc1)c1ccc(Br)cc1
AC50 [18]: 22.4 µM (inconclusive) | AC50 [19]: 3.55 µM (inconclusive) | IC50 [20]: > 50 µM (active)
